Converted amounts (≈) assume the structure as drawn.
Legend:
[1] = Direct dilution test (remained lactone form); type: physicochemical; settings: PBS pH 7.4, 37° C.
Method: A 150 μL solution of a pharmaceutical composition in accordance with the present disclosure, which was prepared according to the method as set forth above, was mixed with 1350 μL of PBS (pH 7.4), and then incubated at 37° C. After 1, 2, 4, and 8 hours of incubation, 10 μL incubated solutions were taken respectively, and each was mixed with 990 μL of methanol. The quantity of lactone form CPT or SN38 in the mixtures was determined by HPLC. A 150 μL CPT containing DMSO solution (CPT-DMSO) was used as a control.

[2] = Release test using dialysis bag; type: physicochemical; settings: dialysis against PBS pH 7.4, 37° C.
Method: A 50 μL solution of a pharmaceutical composition, which was prepared according to the method as set forth above, was added into a dialysis bag having a molecular weight cutoff of about 3,500 Daltons, and then was dialyzed against a 50 ml phosphate buffered saline (PBS) (pH 7.4) at 37° C. After 1, 2, 4, and 8 hours of dialysis, 250 μL out-of-bag buffers were taken respectively, and then each was then mixed with 750 μL methanol (in 0.6N HCl). The quantity of each drug, which was released from the polymeric micelle and then dialyzed into the out-of-bag buffer, was determined by HPLC. A 50 μL CPT containing DMSO solution (CPT-DMSO) was used as a control.

[3] = In vivo kinetic test of CPT; set-up: species or system SD mice; settings: SD, mouse, plasma
Method: The concentrations of lactone form CPT in bloods over the time were then determined by HPLC.
(§1) T1/2 (hr), AUCINF(hr*ng/ml), CL(mL/hr/kg), and Vss (mL/kg) in Table 2 represent half-life time, area under the curve to infinity, clearance, and volume of distribution at steady state, and the units thereof, respectively. The n represents sample number. These parameters can be measured and/or calculated according to the techniques known in the art.

PC-3 = assay: MTT assay PC-3; type: cell-based, human; settings: Prostate, PC-3, 72 hours
Method: (§2) Various human cancer lines, such as A549, AS2, and H460, were implanted onto multi-well plates and Dulbecco's Modified Eagle Media (high glucose) with 10% of fetal bovine serum and 1% of P/S being added to each well. […] Then a 20 μL of 0.5 mg/ml MTT (3-(4,5-dimethylthiazol-2-yl)-2,5-diphenyltetrazolium bromide) solution was added to each well to start the reaction. After 2 hours, the suspension of each well was removed and DMSO was added into the well to dissolve formazan, which was formed during the reaction. The living cell concentration was then obtained by analyzing the OD570 and OD600 data of each well.

MCF-7 = assay: MTT assay MCF-7; type: cell-based, human; settings: Breast, MCF-7, 72 hours
Method: as §2

RPMI2650 = assay: MTT assay RPMI2650; type: cell-based, human; settings: Nasalseptum, RPMI2650, 72 hours
Method: as §2

SCC-25 = assay: MTT assay SCC-25; type: cell-based, human; settings: Tongue, SCC-25, 72 hours
Method: as §2

AS2 = assay: MTT assay AS2; type: cell-based, human; settings: Lung, AS2, 72 hours
Method: as §2

AGS = assay: MTT assay AGS; type: cell-based, human; settings: Stomach, 72 hours
Method: as §2

5637 = assay: MTT assay 5637; type: cell-based, human; settings: Bladder, 5637, 72 hours
Method: as §2

U-87 MG = assay: MTT assay U-87 MG; type: cell-based, human; settings: Brain, 72 hours
Method: as §2

HT29 = assay: MTT assay HT29; type: cell-based, human; settings: Colorectal, HT29, 72 hours
Method: as §2

[4] = In vivo kinetic test of SN38; set-up: species or system SD mice; settings: for lactone form SN38 in plasma: 4 mg/kg SN38 vein injection
Method: The concentrations of lactone form SN38 in bloods over the time were then determined by HPLC.
as §1, with “Table 7” for “Table 2”, “time, […],” for “time,”

A549 = assay: MTT assay A549; type: cell-based, human; settings: Lung, A549, 72 hours
Method: as §2

OVCAR-3 = assay: MTT assay OVCAR-3; type: cell-based, human; settings: Ovarian, OVCAR-3, 72 hours
Method: as §2

Colo 205 = assay: MTT assay Colo 205; type: cell-based, human; settings: Colorectal, Colo 205, 72 hours
Method: as §2

SK-HEP-1 = assay: MTT assay SK-HEP-1; type: cell-based, human; settings: Liver, SK-HEP-1, 72 hours
Method: as §2

hepG2/C3A = assay: MTT assay hepG2/C3A; type: cell-based, human; settings: Liver, 72 hours
Method: as §2

H460 = assay: MTT assay H460; type: cell-based, human; settings: Lung, H460, 72 hours
Method: as §2

[5] = iv, lactone form CPT, 1 mg/kg vein injection
[6] = plasma SN38, 4 mg/kg vein injection

CC[C@@]1(O)C(=O)OCc2c1cc1n(c2=O)Cc2cc3ccccc3nc2-1 [CPT-DMSO, camptothecin]
percentage of remained lactone form CPT and SN38 ([1]; 2 hours): 26.4%
percentage of remained lactone form CPT and SN38 ([1]; 4 hours): 18.1%
percentage of released CPT/SN38 ([2]; 1 hour): 48.2%
percentage of released CPT/SN38 ([2]; 2 hours): 73.9%
percentage of released CPT/SN38 ([2]; 4 hours): 87.2%
concentration at 0.25 h ([3]; intravenous, 0.25 hour, 1 mg/kg CPT vein injection, read-out: lactone form CPT in plasma): 19.4 ng/mL
concentration at 0.5 h ([3]; intravenous, 0.5 hour, 1 mg/kg CPT vein injection, read-out: lactone form CPT in plasma): 11.6 ng/mL
concentration at 1 h ([3]; intravenous, 1 hour, 1 mg/kg CPT vein injection, read-out: lactone form CPT in plasma): 3.1 ng/mL
concentration at 2 h ([3]; intravenous, 2 hours, 1 mg/kg CPT vein injection, read-out: lactone form CPT in plasma): 0.3 ng/mL
AUC(0-inf) [3, 5]: 16 ± 6 ng·h/mL
clearance [3, 5]: 1160 mL/min/kg
half-life [3, 5]: 15 ± 6 min
Vd ([3]; iv, lactone form CPT, 1 mg/kg vein injection, read-out: Vss): 23.9 ± 6.2 L/kg

CCc1c2c(nc3ccc(O)cc13)-c1cc3c(c(=O)n1C2)COC(=O)[C@]3(O)CC [SN38, 7-ethyl-10-hydroxycamptothecin]
IC50 (PC-3): 0.0959 ± 0.02127 µg/mL (≈ 0.244 µM)
IC50 (MCF-7): 0.06093 ± 0.04886 µg/mL (≈ 0.155 µM)
IC50 (RPMI2650): 0.00097 ± 7e-05 µg/mL (≈ 0.00247 µM)
IC50 (SCC-25): 0.01971 ± 0.01128 µg/mL (≈ 0.0502 µM)
IC50 (AS2): 0.00176 ± 0.00023 µg/mL (≈ 0.00449 µM)
IC50 (AGS): 0.04022 ± 0.01424 µg/mL (≈ 0.102 µM)
IC50 5637: 0.00036 ± 3e-05 µg/mL (≈ 0.000917 µM)
IC50 (U-87 MG): 0.01022 ± 0.0026 µg/mL (≈ 0.026 µM)
IC50 (HT29): 0.0034 µg/mL (≈ 0.00866 µM)
lactone form SN38 in plasma ([4]; 0.1 Hour(s)): 710.8 ng/mL
lactone form SN38 in plasma ([4]; 0.2 Hour(s)): 505.3 ng/mL
lactone form SN38 in plasma ([4]; 0.3 Hour(s)): 265.3 ng/mL
lactone form SN38 in plasma ([4]; 0.500 Hour(s)): 143.4 ng/mL
lactone form SN38 in plasma ([4]; 1.0 Hour(s)): 32.3 ng/mL
lactone form SN38 in plasma ([4]; 2.0 Day(s)): 12.5 ng/mL
lactone form SN38 in plasma ([4]; 4.0 Day(s)): 9.0 ng/mL
lactone form SN38 in plasma ([4]; 8.0 Day(s)): 7.3 ng/mL
lactone form SN38 in plasma ([4]; 24.0 Day(s)): 1.0 ng/mL
AUCINF [4, 6]: 417 ng·h/mL
CL [4, 6]: 41.5 mL/min/kg
T1/2 [4, 6]: 372 min
Vss [4, 6]: 34.3 L/kg
IC50 (A549): 0.01387 ± 0.00123 µg/mL (≈ 0.0353 µM)
IC50 (OVCAR-3): 0.02273 ± 0.00214 µg/mL (≈ 0.0579 µM)
IC50 (Colo 205): 0.00563 ± 0.00096 µg/mL (≈ 0.0143 µM)
IC50 (SK-HEP-1): 0.01521 ± 0.00133 µg/mL (≈ 0.0388 µM)
IC50 (hepG2/C3A): 0.0287 ± 0.0092 µg/mL (≈ 0.0731 µM)
IC50 (H460): 0.00318 ± 0.00026 µg/mL (≈ 0.0081 µM)

Source: patent publication US8420119B2, “Drug composition for treating tumor with polymeric micelle encapsulating anti-neoplastic” (Industrial Technology Research Institute, priority 2009, dated 2013)
